Assay results as given in PMC11590026, “Synthesis, enzyme inhibition, and docking studies of new schiff bases of disalicylic acid methylene-based derivatives as dual-target antibacterial agents” (Frontiers in Chemistry, 2024).
≈ marks a conversion by molar mass, not a printed value. Like-named read-outs stand apart in the source and are kept apart here.

Tests used:
B. subtilis = assay: MIC/MBC assay, twofold serial dilution; type: cell-based, Bacillus subtilis
Protocol: (§1) The results of this in vitro assay test are consistent with the findings of the antimicrobial sensitivity test. […] It has lower antimicrobial activity than ciprofloxacin against all pathogens tested.
(§2) The MBC differs from the MIC. […]
(§3) 4.2.2. Minimum inhibitory concentration assay
(§4) In 96-well microtiter plates and […] of fresh bacterial culture of a single McFarland unit overnight, a double serial dilution of each compound […] in sterile standard saline were prepared to every single source well. Ciprofloxacin antibiotic (5 mg / mL - 1) and normal saline were included as standard reference in each assay. The plates were incubated at 37 0C overnight. As an indicator of bacterial growth, […] of p-iodonitrotetrazolium violet (INT) was added to each well and incubated at 37 0C for 30 […]
(§5) min. MIC values are recorded as the lowest concentration of the extract that completely inhibited bacterial growth that is clear well. The colorless tetrazolidium salt acts as an electron accepter and is reduced to a red colored formazan product by biological activity organisms. Where bacterial growth was inhibited, the solution in the well remained clear after incubation with INT. […]

S. aureus = assay: MIC/MBC assay, twofold serial dilution; type: cell-based, Staphylococcus aureus
Protocol: as §1, §2, §3, §4, §5

E. coli = assay: MIC/MBC assay, twofold serial dilution; type: cell-based, Escherichia coli; conditions: for MBC: read-out: MBC
Protocol: as §1, §2, §3, §4, §5

P. aeruginosa = assay: MIC/MBC assay, twofold serial dilution; type: cell-based, Pseudomonas aeruginosa
Protocol: as §1, §2, §3, §4, §5

[1] = system: S. aureus (ATCC 43300) (MRSA); assay: Antibacterial assay against multi-drug resistant strains (MIC/MBC); type: cell-based, Staphylococcus aureus; conditions: for MBC / MIC: S. aureus ATCC 43300 (MRSA)
E. coli (ATCC BAA-196) = assay: as above; type: cell-based, Escherichia coli; conditions: for MBC: ATCCBAA196
[2] = system: P. aeruginosa (ATCC BAA-2111); assay: as above; type: cell-based, Pseudomonas aeruginosa; conditions: for MBC: ATCCBAA2111
E. coli DNA gyrase = E. coli DNA gyrase (Escherichia coli, UniProt P0AES6); assay: E. coli DNA gyrase supercoiling inhibitory assay; type: biochemical
Protocol: The fluorescence was measured with a microplate reader (BioTek Synergy H4,
NaCl and 50 mM MgCl2) was added to terminate the enzymatic reaction. After
Initial screening was done at 100 or 10 μM concentration

DHFR E. Coli = DHFR E. Coli (Escherichia coli, UniProt P0ABQ4); assay: DHFR inhibitory assay; type: biochemical; conditions: read-out: IC50 DHFR E. Coli
[3] = Cell viability assay (MTT); type: cell-based; conditions: human, MCF-10A cells (normal mammary gland epithelial cell line), 4-day incubation
Protocol: The vitality of the investigated compounds was assessed using the MCF-10A cell line, which is a normal human mammary gland epithelial cell line. Following a 4-day incubation period on MCF-10A cells with a concentration of 50 µM for each compound being studied, the viability of the cells was assessed using the MTT test ([Hisham et al., 2022]; [Mahmoud et al., 2022]).
4.2.3. Cell Viability assay
MTT assay was carried out to study the effect of compounds on mammary epithelial cells (MCF-10A). The medium in which cells were propagated contained Dulbecco's modified Eagle's medium (DMEM)/ Ham's F-12 medium (1:1) supplemented with epidermal growth factor (20 ng/mL), hydrocortisone (500 ng/mL), insulin (10 μg/mL), 2 mM glutamine and 10% fetal calf serum. After every 2-3 days, the cells were passaged using trypsin ethylenediamine tetra acetic acid (EDTA). The cells were seeded at a density of 10^4 cells mL-1 in flat-bottomed culture plates containing 96 wells each. After 24 h, medium was removed from the plates and the compounds in (in 0.1% DMSO) were added (in 200 μL medium to yield a final concentration of 0.1% v/v) to the wells of plates. A single compound was designated with four wells followed by incubation of plates for 96h at 37°C. After incubation, medium was removed completely from the plates followed by addition of MTT (0.4 mg/mL in medium) to each well and subsequent incubation of plates for 3h. MTT (along with the medium) was removed and DMSO (150μL) was added to each well of the culture plates, followed by vortexing and subsequent measurement of absorbance (at 540 nm) using microplate reader. The data are shown as percentage inhibition of proliferation in comparison with controls

Gram-positive bacteria = assay: MBC assay, Gram-positive bacteria together; type: cell-based; conditions: Gram-positive bacteria (B. subtilis, S. aureus)
Source text: The MBC differs from the MIC.

A. flavus = assay: Antifungal assay (MIC/MFC), twofold serial dilution; conditions: for MIC: A. flavus
C. albicans = assay: as above
S. aureus biofilm = assay: Antibiofilm assay, microtiter plate biofilm quantification
Protocol: Microtiter plate assay for biofilm quantification
The effect of sample on biofilm formation was evaluated in 96-well polystyrene
flatbottom plates. Briefly, 300 𝜇L of inoculated fresh trypticase soy yeast broth (TSY)
Wells containing medium and those without
extracts and only with methanol were used as controls. Plates were incubated at 37∘C
for 48h. After incubation, supernatant was removed and each well was washed
thoroughly with sterile distilled water to remove free-floating cells; thereafter plates
were air-dried for 30min, and the biofilm formed was stained during 15 min at room
temperature with 0.1% aqueous solution of crystal violet. Following incubation, the
excess of stain was removed by washing the plate three times with sterile distilled water.
each well and after 15min of incubation, absorbance was measured using microplate
reader at a wavelength of 570 nm.
Biofilm inhibition ability of sample=(1- (absorb. sample - absorb. Blank))/
(absorb. control - absorb. Blank))*100

[4] = system: MDRB (multi-drug resistant bacteria); assay: MIC/MBC against the MDRB panel as a whole
Source text: Norfloxacin, a broad-spectrum antibiotic, worked as positive control.

[5] = Bacillus subtilis, read-out: MBC
[6] = Bacillus subtilis, read-out: MIC
[7] = Staphylococcus aureus, read-out: MBC
[8] = Staphylococcus aureus, read-out: MIC
[9] = Escherichia coli, read-out: MIC
[10] = Pseudomonas aeruginosa, read-out: MBC
[11] = Pseudomonas aeruginosa, read-out: MIC
[12] = Escherichia coli, ATCCBAA196, read-out: MIC
[13] = Pseudomonas aeruginosa, ATCCBAA2111, read-out: MIC

Chain of DHFR E. Coli (P0ABQ4 whole entry): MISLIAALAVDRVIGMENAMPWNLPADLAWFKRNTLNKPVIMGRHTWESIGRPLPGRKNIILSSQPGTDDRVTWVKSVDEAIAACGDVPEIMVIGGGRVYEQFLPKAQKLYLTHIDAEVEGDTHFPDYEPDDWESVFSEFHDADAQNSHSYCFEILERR

## O=C1Nc2ccc(Cl)cc2/C1=N/NC(=O)c1cc(Cc2ccc(O)c(C(=O)N/N=C3\C(=O)Nc4ccc(Cl)cc43)c2)ccc1O [Compound 6h]
B. subtilis
  MBC: 0.038 ± 0.002 µM (≈ 0.0245 µg/mL)
  MIC: 0.024 ± 0.002 µM (≈ 0.0154 µg/mL)
  Times less effective than ciprofloxacin (MIC): 2.5 times
B. subtilis; [5]
  MBC: 0.038 µM (≈ 0.0245 µg/mL)
B. subtilis; [6]
  MIC: 0.024 µM (≈ 0.0154 µg/mL)
S. aureus
  MBC: 0.028 ± 0.001 µM (≈ 0.018 µg/mL)
  MIC: 0.019 ± 0.001 µM (≈ 0.0122 µg/mL)
  Times more effective than ciprofloxacin (MIC): 1.5 times
S. aureus; [7]
  MBC: 0.028 µM (≈ 0.018 µg/mL)
S. aureus; [8]
  MIC: 0.019 µM (≈ 0.0122 µg/mL)
E. coli
  MIC: 0.054 ± 0.003 µM (≈ 0.0347 µg/mL)
E. coli; Escherichia coli
  MBC: 0.074 ± 0.006 µM (≈ 0.0476 µg/mL)
E. coli; [9]
  MIC: 0.054 µM (≈ 0.0347 µg/mL)
P. aeruginosa
  MBC: 0.074 ± 0.005 µM (≈ 0.0476 µg/mL)
  MIC: 0.055 ± 0.004 µM (≈ 0.0354 µg/mL)
P. aeruginosa; [10]
  MBC: 0.074 µM (≈ 0.0476 µg/mL)
P. aeruginosa; [11]
  MIC: 0.055 µM (≈ 0.0354 µg/mL)
[1]; MRSA strain S. aureus ATCC 43300
  Times more potent than norfloxacin (MBC): around 1.2 times
[1]
  MBC: 3.20 ± 0.15 µM (≈ 2.06 µg/mL)
  MIC: 1.70 ± 0.10 µM (≈ 1.09 µg/mL)
[1]; [7]
  MBC: 3.9 µM (≈ 2.51 µg/mL)
[1]; [8]
  MIC: 1.7 µM (≈ 1.09 µg/mL)
E. coli (ATCC BAA-196)
  MIC: 1.90 ± 0.10 µM (≈ 1.22 µg/mL)
E. coli (ATCC BAA-196); Escherichia coli
  MBC: 3.7 ± 0.2 µM (≈ 2.38 µg/mL)
E. coli (ATCC BAA-196); [12]
  MIC: 1.9 µM (≈ 1.22 µg/mL)
[2]
  MIC: 3.40 ± 0.20 µM (≈ 2.19 µg/mL)
[2]; Pseudomonas aeruginosa
  MBC: 5.8 ± 0.3 µM (≈ 3.73 µg/mL)
[2]; [13]
  MIC: 3.4 µM (≈ 2.19 µg/mL)
E. coli DNA gyrase
  Potency relative to novobiocin against DNA gyrase: twice as potent as novobiocin
E. coli DNA gyrase; read-out: IC50 E. Coli DNA gyrase
  IC50: 79 ± 5 nM
DHFR E. Coli
  IC50: 3800 ± 100 nM
[3]
  viability at 96 h, 50 µM: 93%
Gram-positive bacteria
  MBC: 0.028 to 0.058 µM (≈ 0.018 to 0.0373 µg/mL)
A. flavus
  MIC: 14.50 µM (≈ 9.33 µg/mL)
A. flavus; listed as 6 h
  MIC: 14.50 ± 1 µM (≈ 9.33 µg/mL)
A. flavus; Aspergillus flavus
  MFC: 28.5 ± 1 µM (≈ 18.3 µg/mL)
  MIC: 14.5 to 19.5 µM (≈ 9.33 to 12.5 µg/mL)
C. albicans; C. albicans
  MIC: 18.20 ± 1 µM (≈ 11.7 µg/mL)
C. albicans; Candida albicans
  MFC: 36.5 ± 2 µM (≈ 23.5 µg/mL)
  MIC: 18.2 µM (≈ 11.7 µg/mL)
S. aureus biofilm; 1/2 MIC of 6h (S. aureus ATCC 43300)
  Biofilm inhibition %: 87.66%
S. aureus biofilm; 1/2 MIC of 6h (S. aureus ATCC 43300), listed as 6 h
  Biofilm inhibition %: 88%
S. aureus biofilm; 1/4 of MIC of 6h (S. aureus ATCC 43300)
  Biofilm inhibition %: 64.10%
S. aureus biofilm; 1/4 of MIC of 6h (S. aureus ATCC 43300), listed as 6 h
  Biofilm inhibition %: 64%
S. aureus biofilm; MIC of 6h (S. aureus ATCC 43300)
  Biofilm inhibition %: 96.95%
S. aureus biofilm; MIC of 6h (S. aureus ATCC 43300), listed as 6 h
  Biofilm inhibition %: 97%

## Cc1ccc2c(c1)/C(=N/NC(=O)c1cc(Cc3ccc(O)c(C(=O)N/N=C4\C(=O)Nc5ccc(C)cc54)c3)ccc1O)C(=O)N2 [Compound 6j]
B. subtilis
  MBC: 0.047 ± 0.002 µM (≈ 0.0283 µg/mL)
B. subtilis; [5]
  MBC: 0.047 µM (≈ 0.0283 µg/mL)
B. subtilis; [6]
  MIC: 0.031 ± 0.002 µM (≈ 0.0187 µg/mL)
S. aureus
  MBC: 0.04 ± 0.002 µM (≈ 0.0241 µg/mL)
  MIC: 0.025 ± 0.002 µM (≈ 0.0151 µg/mL)
S. aureus; [7]
  MBC: 0.04 µM (≈ 0.0241 µg/mL)
S. aureus; [8]
  MIC: 0.025 µM (≈ 0.0151 µg/mL)
E. coli; Escherichia coli
  MBC: 0.081 ± 0.006 µM (≈ 0.0488 µg/mL)
E. coli; [9]
  MIC: 0.062 ± 0.004 µM (≈ 0.0374 µg/mL)
P. aeruginosa
  MBC: 0.08 ± 0.006 µM (≈ 0.0482 µg/mL)
P. aeruginosa; [10]
  MBC: 0.08 µM (≈ 0.0482 µg/mL)
P. aeruginosa; [11]
  MIC: 0.061 ± 0.005 µM (≈ 0.0368 µg/mL)
[1]; [7]
  MBC: 5.9 ± 0.25 µM (≈ 3.56 µg/mL)
[1]; [8]
  MIC: 3.2 ± 0.15 µM (≈ 1.93 µg/mL)
E. coli (ATCC BAA-196); Escherichia coli
  MBC: 6.1 ± 0.25 µM (≈ 3.68 µg/mL)
E. coli (ATCC BAA-196); [12]
  MIC: 3.9 ± 0.15 µM (≈ 2.35 µg/mL)
[2]; Pseudomonas aeruginosa
  MBC: 7.8 ± 0.3 µM (≈ 4.7 µg/mL)
[2]; [13]
  MIC: 5.6 ± 0.25 µM (≈ 3.37 µg/mL)
E. coli DNA gyrase
  IC50: 117 ± 8 nM
DHFR E. Coli
  IC50: 5100 ± 200 nM
[3]
  viability at 96 h, 50 µM: 92%
Gram-positive bacteria
  MBC: 0.028 to 0.058 µM (≈ 0.0169 to 0.035 µg/mL)
A. flavus
  MIC: 16.90 ± 1 µM (≈ 10.2 µg/mL)
A. flavus; Aspergillus flavus
  MFC: 33.9 ± 2 µM (≈ 20.4 µg/mL)
  MIC: 14.5 to 19.5 µM (≈ 8.74 to 11.8 µg/mL)
C. albicans; Candida albicans
  MFC: 41.5 ± 3 µM (≈ 25 µg/mL)
  MIC: 20.7 ± 1 µM (≈ 12.5 µg/mL)

## CCn1cc(C(=O)O)c(=O)c2cc(F)c(N3CCNCC3)cc21 [Norfloxacin, reference compound]
[1]
  MIC: 1.20 ± 0.10 µM (≈ 0.383 µg/mL)
[1]; [7]
  MBC: 2.8 ± 0.1 µM (≈ 0.894 µg/mL)
[1]; [8]
  MIC: 1.2 µM (≈ 0.383 µg/mL)
E. coli (ATCC BAA-196)
  MIC: 1.60 ± 0.10 µM (≈ 0.511 µg/mL)
E. coli (ATCC BAA-196); Escherichia coli
  MBC: 3.5 ± 0.1 µM (≈ 1.12 µg/mL)
E. coli (ATCC BAA-196); [12]
  MIC: 1.6 µM (≈ 0.511 µg/mL)
[2]
  MIC: 3.20 ± 0.10 µM (≈ 1.02 µg/mL)
[2]; Pseudomonas aeruginosa
  MBC: 4.7 ± 0.2 µM (≈ 1.5 µg/mL)
[2]; [13]
  MIC: 3.2 µM (≈ 1.02 µg/mL)
[4]; read-out: MBC values
  MBC: 2.8 to 4.7 µM (≈ 0.894 to 1.5 µg/mL)
[4]; read-out: MIC values
  MIC: 1.2 to 3.2 µM (≈ 0.383 to 1.02 µg/mL)
